{
  "source": "patent US4353923A",
  "about": "“Pharmaceutical composition containing a benzofurancarboxamide derivative as the active ingredient” (Kyowa Hakko Kogyo Co., Ltd., priority 1980, dated 1982)",
  "key": {"male dd mice [1]": {"system": "male dd mice", "assay": "Analgesic activity: acetic acid writhing", "assay_type": "in vivo", "conditions": "Mus musculus, po, 1 h, acetic acid i.p. after 60 min, read-out: Inhibition ratio (writhes, vs control); for inhibition in vivo at 50 mg/kg: 50 mg/kg p.o.", "procedure": "In this experiment, 10 male dd mice weighing 20±1 g were used as one group for examination of analgesic activity. Sixty minutes after oral administration of each drug to each animal, 0.2 ml of a 0.7% acetic acid solution was intraperitoneally administered to the animal. Starting 10 minutes after the administration of acetic acid, the number of writhes occurred in 10 minutes was counted. Average number of writhes and inhibition ratio in comparison with control group were calculated."}, "male Wistar rats": {"system": "male Wistar rats", "assay": "Anti-inflammatory activity: carrageenin edema method", "assay_type": "in vivo", "conditions": "Rattus norvegicus, po, 3 hours after carrageenin, read-out: Inhibition ratio (paw swelling, vs control)", "procedure": "In this experiment, 5 male Wistar rats weighing 140±10 g were used as one group. Sixty minutes after oral administration of each drug to each animal, 0.1 ml of a 1% carrageenin solution as a phlogistic agent was injected into the plantar surface of the right hind paw of the animal to induce inflammation. The volume of the paw was measured before and 3 hours after the injection of the phlogistic agent. Swelling ratio and inhibition ratio in comparison with control group were calculated."}, "male dd mice [2]": {"system": "male dd mice", "assay": "Anticonvulsant activity: maximal electroshock convulsion test", "assay_type": "in vivo", "conditions": "Mus musculus, po, 1 h, 60 min after administration, read-out: Maximal electroshock convulsion test, inhibition ratio; for responders at 50 mg/kg: 50 mg/kg p.o.; for responders at 75 mg/kg: 75 mg/kg p.o.", "excerpt": "Anticonvulsant activity was examined according to maximal electroshock convulsion test.\nIn this experiment, 10 male dd mice weighing 23±1 g were used as one group. Each drug was orally administered to the animals. Sixty minutes after the administration, an electric current (2000 V, 50 mA) was applied to both eyes of the mouse for 0.2 second. Drug activity was judged according to whether tonic extensor seizures were observed or not."}, "male dd mice [3]": {"system": "male dd mice", "assay": "Muscle relaxant activity: rotating rod test", "assay_type": "in vivo", "conditions": "5 mice per group", "procedure": "(§1) In this example, 5 male dd mice weighing 20±1 g were used as one group. Prior to the experiments, mice were placed on the rod having a diameter of 3 cm and rotating at 5 r.p.m. in the reverse direction of the rotation. […] The drugs were orally administered and the muscle relaxant activity with the passage of time was examined by the following tests.\nRotating rod test: The same mouse was placed on the rotating rod to observe whether it falls or not within 2 minutes.\n(§2) In each test, the drug was considered to have a muscle relaxant activity when the mouse fell."}, "male dd mice [4]": {"system": "male dd mice", "assay": "Muscle relaxant activity: slant test", "assay_type": "in vivo", "conditions": "300 mg/kg p.o., 5 mice per group", "procedure": "as §1\nSlant test: Each mouse was placed on a wire net inclined at an angle of 45° to observe whether it falls or not.\nas §2"}, "male dd mice [5]": {"system": "male dd mice", "assay": "Muscle relaxant activity: traction test", "assay_type": "in vivo", "conditions": "5 mice per group", "excerpt": "as §1\nTraction test: Forefeet of the same mouse were placed on a wire to observe whether it falls or not.\nas §2"}, "in vivo": {"assay": "in vivo", "conditions": "mouse, po, mice, deaths counted for 7 days", "procedure": "In this example, 3-7 male dd mice weighing 20±1 g were used as one group. Each drug was suspended in a 0.3% CMC solution and orally administered. After the administration, number of dead animals was counted for 7 days to determine LD50 value. As the reference drugs, mepirizole and benzydamine hydrochloride were dissolved in water and orally administered. The drugs and the reference drugs were also administered in the same manner as above in Examples 2-5."}},
  "note": "Structures can show the parent of a compound that is named as a salt.",
  "data": [
    {"smiles": "CN(C)CCCOc1nn(Cc2ccccc2)c2ccccc12", "note": "[Benzydamine hydrochloride, benzydamine hydrochloride, reference compound]", "values": [
      {"measurement": "inhibition in vivo at 50 mg/kg", "setting": "male dd mice [1]", "result": 0, "unit": "%"},
      {"measurement": "inhibition in vivo at 200 mg/kg", "setting": "male dd mice [1]; 200 mg/kg p.o.", "result": 83.7, "unit": "%"},
      {"measurement": "inhibition in vivo at 100 mg/kg", "setting": "male Wistar rats; 100 mg/kg p.o.", "result": 14.4, "unit": "%"},
      {"measurement": "inhibition in vivo at 200 mg/kg", "setting": "male Wistar rats; 200 mg/kg p.o.", "result": 23.5, "unit": "%"},
      {"measurement": "responders at 50 mg/kg", "setting": "male dd mice [2]", "result": 35, "unit": "%"},
      {"measurement": "responders at 75 mg/kg", "setting": "male dd mice [2]", "result": 90, "unit": "%"},
      {"measurement": "responders at 100 mg/kg", "setting": "male dd mice [2]; 100 mg/kg p.o.", "result": 100, "unit": "%"},
      {"measurement": "responders at 300 mg/kg", "setting": "male dd mice [2]; 300 mg/kg p.o.", "result": 100, "unit": "%"},
      {"measurement": "Number of dropped mice, rotating rod test", "setting": "male dd mice [3]; 300 mg/kg p.o., 1 hr", "result": 5, "unit": "mice"},
      {"measurement": "Number of dropped mice, rotating rod test", "setting": "male dd mice [3]; 300 mg/kg p.o., 2 hr", "result": 3, "unit": "mice"},
      {"measurement": "Number of dropped mice, rotating rod test", "setting": "male dd mice [3]; 300 mg/kg p.o., 3 hr", "result": 2, "unit": "mice"},
      {"measurement": "Number of dropped mice, slant test", "setting": "male dd mice [4]; 1 hr", "result": 4, "unit": "mice"},
      {"measurement": "Number of dropped mice, slant test", "setting": "male dd mice [4]; 2 hr", "result": 2, "unit": "mice"},
      {"measurement": "Number of dropped mice, slant test", "setting": "male dd mice [4]; 3 hr", "result": 0, "unit": "mice"},
      {"measurement": "Number of dropped mice, traction test", "setting": "male dd mice [5]; 300 mg/kg p.o., 1 hr", "result": 5, "unit": "mice"},
      {"measurement": "Number of dropped mice, traction test", "setting": "male dd mice [5]; 300 mg/kg p.o., 2 hr", "result": 1, "unit": "mice"},
      {"measurement": "Number of dropped mice, traction test", "setting": "male dd mice [5]; 300 mg/kg p.o., 3 hr", "result": 0, "unit": "mice"},
      {"measurement": "LD50 at 168 h", "setting": "in vivo", "result": "500 to 1000", "unit": "mg/kg"}
    ]},
    {"smiles": "Cc1c(C(=O)N(C)C)oc2cccc(Cl)c12", "note": "[Compound (A), 4-Chloro-N,N,3-trimethyl-benzo[b]furan-2-carboxamide]", "values": [
      {"measurement": "inhibition in vivo at 50 mg/kg", "setting": "male dd mice [1]", "result": 60.6, "unit": "%"},
      {"measurement": "inhibition in vivo at 150 mg/kg", "setting": "male dd mice [1]; 150 mg/kg p.o.", "result": 100, "unit": "%"},
      {"measurement": "inhibition in vivo at 150 mg/kg", "setting": "male Wistar rats; 150 mg/kg p.o.", "result": 33.4, "unit": "%"},
      {"measurement": "responders at 25 mg/kg", "setting": "male dd mice [2]; 25 mg/kg p.o.", "result": 10, "unit": "%"},
      {"measurement": "responders at 50 mg/kg", "setting": "male dd mice [2]", "result": 30, "unit": "%"},
      {"measurement": "responders at 75 mg/kg", "setting": "male dd mice [2]", "result": 80, "unit": "%"},
      {"measurement": "Number of dropped mice, rotating rod test", "setting": "male dd mice [3]; 75 mg/kg p.o., 1 hr", "result": 3, "unit": "mice"},
      {"measurement": "Number of dropped mice, rotating rod test", "setting": "male dd mice [3]; 75 mg/kg p.o., 2 hr", "result": 2, "unit": "mice"},
      {"measurement": "Number of dropped mice, rotating rod test", "setting": "male dd mice [3]; 75 mg/kg p.o., 3 hr", "result": 1, "unit": "mice"},
      {"measurement": "Number of dropped mice, rotating rod test", "setting": "male dd mice [3]; 150 mg/kg p.o., 1 hr", "result": 5, "unit": "mice"},
      {"measurement": "Number of dropped mice, rotating rod test", "setting": "male dd mice [3]; 150 mg/kg p.o., 2 hr", "result": 5, "unit": "mice"},
      {"measurement": "Number of dropped mice, rotating rod test", "setting": "male dd mice [3]; 150 mg/kg p.o., 3 hr", "result": 2, "unit": "mice"},
      {"measurement": "Number of dropped mice, slant test", "setting": "male dd mice [4]; 1 hr", "result": 4, "unit": "mice"},
      {"measurement": "Number of dropped mice, slant test", "setting": "male dd mice [4]; 2 hr", "result": 3, "unit": "mice"},
      {"measurement": "Number of dropped mice, slant test", "setting": "male dd mice [4]; 3 hr", "result": 3, "unit": "mice"},
      {"measurement": "Number of dropped mice, traction test", "setting": "male dd mice [5]; 75 mg/kg p.o., 1 hr", "result": 3, "unit": "mice"},
      {"measurement": "Number of dropped mice, traction test", "setting": "male dd mice [5]; 75 mg/kg p.o., 2 hr", "result": 0, "unit": "mice"},
      {"measurement": "Number of dropped mice, traction test", "setting": "male dd mice [5]; 75 mg/kg p.o., 3 hr", "result": 0, "unit": "mice"},
      {"measurement": "Number of dropped mice, traction test", "setting": "male dd mice [5]; 150 mg/kg p.o., 1 hr", "result": 5, "unit": "mice"},
      {"measurement": "Number of dropped mice, traction test", "setting": "male dd mice [5]; 150 mg/kg p.o., 2 hr", "result": 3, "unit": "mice"},
      {"measurement": "Number of dropped mice, traction test", "setting": "male dd mice [5]; 150 mg/kg p.o., 3 hr", "result": 1, "unit": "mice"},
      {"measurement": "LD50 at 168 h", "setting": "in vivo", "result": "> 1000", "unit": "mg/kg"}
    ]}
  ]
}
